Data as given in a compilation of properties of binary mixtures (doi:10.4028/www.scientific.net/amr.864-867.125).

Test: xn = mol fraction of the nth substance listed
Conditions: 101 kPa

CCCC[n+]1ccn(C)c1.F[P-](F)(F)(F)(F)F + Cc1ccccc1
viscosity [mPa·s]
Conditions	x2 = 0.05	x2 = 0.1	x2 = 0.2	x2 = 0.3	x2 = 0.4
298.15 K	–	149.5	111.5	67.3	42.9
300.65 K	126.7	99.9	–	50.1	–
303.15 K	98	–	55.7	–	24.6
305.65 K	79	57.3	44.2	–	20.42
308.15 K	65.7	47	36.8	–	17.61
310.65 K	56	–	31.7	24	15.61
313.15 K	48.7	34.7	27.9	21.33	–
315.65 K	43.1	30.8	25.1	19.23	12.97
318.15 K	38.7	27.8	22.96	–	12.06
320.65 K	35.1	25.4	21.23	–	–
323.15 K	32.2	23.49	19.82	15.09	10.71
325.65 K	29.8	21.91	18.66	14.15	10.21
328.15 K	–	20.59	17.68	13.36	9.77
330.65 K	–	19.47	16.85	12.68	9.4
333.15 K	24.5	18.52	16.14	12.09	9.08
335.65 K	23.16	17.69	15.52	11.58	–
338.15 K	–	16.96	14.98	11.13	8.56
